Compound `CC1=C(C(=O)c2ccccc2F)C(=O)C2C=CC=CC2C1=O` (stereo not given) has a melting point of 157 to 158 °C.
In the case of `CCc1[nH]n(C2CCCC2)c2nc(-c3ccc4nccn4c3)nc(=O)c1-2`, the melting point is reported as > 300 °C.
With `Cn1c(SCC(=O)C23CC4CC(CC(C4)C2)C3)nnc1C1CC1` the melting point was 96 to 97.5 °C.
In the case of `Cn1c(-c2ccc(Cl)c(S(N)(=O)=O)c2)csc1=Nc1ccccc1`, the melting point is reported as 168 to 171 °C.
Work on `Nc1cnc(-c2ccc(OCc3ccccc3)c(C34CC5CC(CC(C5)C3)C4)c2)nc1` yielded a melting point of 216 to 219 °C.
`CN1CCN=C1C(O)(c1ccccc1)c1ccccn1` (stereo not given) gave a melting point of 105 to 108 °C.
With `O=C(O)CC=C(c1ccccc1)c1ccc(F)cc1` the melting point was 98 to 100 °C.
With `COc1ccc(C(=O)N2CCCCC2)c(NC(=O)N[C@@H](Cc2ccc(NC(=O)c3c(Cl)cccc3Cl)cc2)C(=O)O)c1` the melting point was 176 °C.
Compound `CC(C)(C)c1cccc(S(=O)(=O)n2c(Cc3ccc(C4=NOC(=O)C4)cc3)cc3cc(C(F)(F)F)ccc32)c1` has a melting point of 70 °C.
Work on `CN(C)c1ncccc1NC(=NC#N)NC1(c2ccccc2)CCC1` yielded a melting point of 204 to 205 °C.
`Cc1ccc2c(CCN)c[nH]c2c1C` showed a melting point of 171 to 173 °C.
With `CC(=O)NNc1ccc(Cl)c(Cl)c1` the melting point was 179 to 182 °C.
Compound `C[C@H]1[C@H](O)CN1c1c(F)cc2c(=O)c(C(=O)O)cn(C3CC3)c2c1F` (relative stereo) has a melting point of 215 to 218 °C.
Compound `CON(C)C(=O)Nc1ccc(OCCc2ccc(C(C)(C)C)cc2)cc1` has a melting point of 14 to 15 °C.
In the case of `CS(=O)(=O)c1ccc(-c2cnn(-c3ccc(F)cc3)c(=O)c2-c2ccc(Cl)cc2)cc1`, the melting point is reported as 195 to 197 °C.
Work on `OCCNc1ccc2nnn(Cc3ccc4ncccc4c3)c2n1` yielded a melting point of 184 to 186 °C.
`CCCCCCCOC(N)=O` showed a melting point of 84 °C.
With `CCOP(=O)(Cc1ccc(Oc2sc(C(N)=O)c3c2-c2c(cnn2CC)CC3)cc1)OCC` the melting point was 152 to 153 °C.
`Cc1cc(NC(=O)N2CCc3cc(N(C)C)ccc32)c2ccccc2n1` showed a melting point of 252 to 253 °C.
Compound `COc1cc(CC#N)nc(N)n1` has a melting point of 95 to 98 °C.
Compound `COC(=O)COc1ccc(C[C@H](NC(=O)OC(C)(C)C)C(=O)O)cc1` has a melting point of 75 to 79 °C.
Compound `COc1ccnc(CSc2nc3cc4c(cc3[nH]2)OC(F)C(F)(F)O4)c1` (stereo not given) has a melting point of 139 to 140 °C.
Compound `COC(=O)Cc1ccc2occ(-c3ccc(Br)cc3)c2c1` has a melting point of 84 to 86 °C.
With `COc1ccc(CSC2=NC(c3cccc([N+](=O)[O-])c3)C(C(=O)O)=C(C)N2)cc1` (stereo not given) the melting point was 90 °C.
Compound `COc1cc2c(Nc3cccc(Cl)c3F)ncnc2cc1OC1CCN(C(=O)[C@@H](O)C(C)(C)C)CC1` has a melting point of 205 to 206 °C.
For `CC(C)c1cc(O)nc(-c2ccc(Cl)cc2)n1`, the melting point was 164 °C.
For `Cn1nccc(N)c1=O`, the melting point was 191 to 192 °C.
In the case of `CC(=O)Oc1c(-c2ccccc2)sc2nc(C(C)(C)C)ccc12`, the melting point is reported as 128 to 129 °C.
For `Cn1ncc(C(=O)O)c1Cl`, the melting point was 195 to 197 °C.
With `Cc1cc2c(N=C=S)cccc2cn1` the melting point was 92 °C.
`COC(=O)c1cc(=O)c2oc3cc(OC)ccc3c(=O)c2[nH]1` gave a melting point of 258 to 260 °C.
In the case of `Oc1ccc2c(c1)CN(C1CC1)C2`, the melting point is reported as 170 °C.
`COC(=O)c1cc(OC)c(N(C)C(=O)OCc2ccccc2)c(OC)c1` showed a melting point of 130 to 131 °C.
In the case of `NC(Cc1ccc(OCc2ccccc2)cn1)C(=O)Nc1ccc(CCCC(=O)NO)cc1` (stereo not given), the melting point is reported as > 300 °C.
Compound `O=c1cc(-c2cccc(F)c2)oc(N2CCOCC2)c1` has a melting point of 169 to 170 °C.
Compound `N#CC1=C(n2cccc2)Oc2c(ccc3ccccc23)C1c1cccc([N+](=O)[O-])c1` (stereo not given) has a melting point of 184 to 185 °C.
`CCOC(=O)c1cc(C)c(Cl)nc1Nc1ccc(I)cc1` showed a melting point of 144 to 146 °C.
`CC(C)CCCC(=O)OC1c2ccccc2C(=O)N1c1ccc2ccc(Cl)nc2n1` (stereo not given) showed a melting point of 132 °C.
`Cc1nc2c3c(c(C(=O)NCCO)cc2n1C)CCC(c1ccccc1)O3` (stereo not given) showed a melting point of 228 to 229 °C.
`Cc1nc(-c2cccc(C(=O)O)c2)sc1C(=O)O` showed a melting point of 295 to 296 °C.
`CCCCOCCOc1ccc(-c2ccc3c(c2)C=C(C(=O)O)CCN3Cc2ccccc2)cc1` showed a melting point of 133 to 138 °C.
`COc1cccc2c(NCc3ccccc3C)nccc12` gave a melting point of 121 to 125 °C.
Compound `COC(=O)CC[C@H](NC(=O)c1ccc(I)cc1F)C(=O)OC` has a melting point of 94 to 96 °C.
Work on `Cc1nc(N2CCN(Cc3ccccc3)C2=O)sc1C(=O)NCc1ccc(F)c(F)c1` yielded a melting point of 152 to 153 °C.
Compound `Fc1ccc(-c2cc(N3CCN(C4CC4)CC3)nc3c2CCCCCC3)cc1` has a melting point of 125 to 128 °C.
`CC(C)Sc1cc2c(cc1Cl)N=CNS2(=O)=O` showed a melting point of 231 to 232 °C.
For `CCOC(=O)NCCc1cccc(-c2ccnc3c(Cl)cnn23)c1`, the melting point was 100 to 102 °C.
With `CC(C)Cn1c(=O)n(C)c(=O)c2cc(Cn3cnc4ccccc43)sc21` the melting point was 198 to 199 °C.
`CC12CC(=O)NN=C1c1ccc(N)cc1C2` (stereo not given) showed a melting point of 222 °C.
Work on `COc1ccnc(CSc2nc3cc(F)c(F)cc3[nH]2)c1C` yielded a melting point of 216 to 218 °C.
With `O=C1NC(=O)C(=Cc2ccccc2)C(=O)N1` the melting point was > 258 °C.
With `CC(C)(C)C(=O)N1CCSC1=S` the melting point was 48 to 50 °C.
`O=C(O)CN(CC(=O)O)CC(CO)C(=O)O` (stereo not given) showed a melting point of 195 °C.
Work on `CN1CCCCc2[nH]c3ccccc3c2CC1` yielded a melting point of 128 to 131 °C.
With `COC(=O)C1(NC(=O)Cc2cc(-c3ccc(Cl)cc3)ccc2C)CCC(F)(F)CC1` the melting point was 186 °C.
With `Cc1ccc(C)c(OC(C)(C)C(=O)O)c1` the melting point was 107 to 109 °C.
With `OCc1onc(-c2ccc(Cl)o2)c1-c1ccccc1` the melting point was 102 to 103 °C.
Compound `O=C(O)c1ccccc1OCCCc1cc(-c2ccc(C(F)(F)F)cc2)no1` has a melting point of 132 to 133 °C.
Compound `C1=C(CCc2ccco2)CCN(Cc2n[nH]c3c2CCc2ccccc2-3)C1` has a melting point of 205 to 208 °C.
`O=C(O)Cn1cc(Cc2nc3c(F)c(F)cc(F)c3s2)c2cc(Cl)ccc21` gave a melting point of 188 to 189 °C.
Compound `COc1cc(C#CCO)cc2c(O)c(C(=O)NCc3ccc(Cl)cc3)cnc12` has a melting point of 207 to 208 °C.
For `Cn1c(-c2ccc(OCC(=O)O)cc2)nc2c3ccccc3ccc21`, the melting point was 227 °C.
With `N#CC(Cn1ccnc1)(c1ccccc1)c1ccccn1` (stereo not given) the melting point was 83 to 85 °C.
Compound `CON=C(c1cc(C)no1)c1ccccc1COc1ncc(C(F)(F)F)cc1Cl` has a melting point of 77 to 79 °C.
Work on `Cc1nnc(-c2ccc3occ(-c4ccc(C(=O)O)c(F)c4)c3c2)o1` yielded a melting point of 282 to 283 °C.
In the case of `N#Cc1cc2c([nH]c1=O)CCc1ccccc1-2`, the melting point is reported as 301 to 303 °C.
`CCCC(=O)C(=CNc1ccccc1OC)C(=O)OCC` showed a melting point of 74 to 76 °C.
In the case of `CNC(=O)c1cc(Cl)cc(C)c1N`, the melting point is reported as 141 to 143 °C.
For `CCOC(=O)c1cc2c(C(=O)CN(Cc3ccccc3)C(C)(C)C)ccc(OCc3ccccc3)c2[nH]1`, the melting point was 155 to 157 °C.
Compound `N#Cc1cc(S(=O)(=O)c2ccc(N)cc2)cc(Br)n1` has a melting point of 186 to 188 °C.
`O=C(C(=Cc1cc(O)c(O)c([N+](=O)[O-])c1)C(=O)C1CC1)C1CC1` showed a melting point of 159 to 162 °C.
For `COc1cc(-c2ccc(S(C)(=O)=O)cc2)c(-c2ccc(F)cc2)c(C(F)(F)F)n1`, the melting point was 166 to 168 °C.
Work on `OCc1nccc(N2CCCC2)c1Cl` yielded a melting point of 85 to 86 °C.
With `CC(=O)n1nc(SCc2ccccc2)nc1N` the melting point was 146 °C.
In the case of `CCOC(=O)c1c[nH]c2ccc(Cc3ccccc3)cc12`, the melting point is reported as 119 to 121 °C.
